Results: patent US11008325B2, “Inhibitors of cancer invasion, attachment, and/or metastasis” (VIRGINIA COMMONWEALTH UNIVERSITY, priority 2016, dated 2021)

Tests used:
[1] = test system: PDZ domain from X11/mint scaffold protein; experiment: NMR [15N,1H] HSQC counter screen; format: binding; conditions: 20 μM protein, 100 μM 113B7
Experimental: FIGS. 4A-4E. FIG. 4A. Chemical structures of the two initial fragment hits (top) and the structure of the resulting molecule 113B7 (PDZ1i). FIG. 4B. Superposition of 2D [^15N, ^1H]-HSQC spectra of 50 μM MDA-9 PDZ12 tandem domain in the absence and presence of 350 μM 113B7. FIG. 4C. Binding curve and representative spectra for the titration of 113B7 against MDA-9 PDZ12 tandem domain. Top: Zoom of box region in FIG. 4B after titrating 113B7 into Mda9 PDZ, tandem domain. The cross peak corresponding to the backbone amide of residue A147 experiences a gradual shift upon the addition of 113B7. Bottom: Titration curve of 113B7 for residue A147. The dissociation constant for the binding of 113B7 to MDA-9 was calculated to be 21.37±8.62 μM. FIG. 4D. Superposition of 2D [^15N, ^1H]-HSQC spectra of 50 μM PDZ domain from X11/mint scaffold protein ([…]; 33% identity with PDZ1) are shown in absence and in presence of […] 113B7. […] FIG. 4E. Docked structure of 113B7 in complex with MDA-9 PDZ tandem domain (PDB: 1W9E). The pose was obtained with GOLD. Two PDZ domains of MDA-9 are labeled.
FIG. 52. Left panel, Docked structure of compound 113B7 on the surface of MDA-9/Syntenin. The docked structure is supported by NMR chemical shift mapping data. […]

U87 cells = experiment: trans-well Matrigel invasion assay; format: cell-based, human
Experimental: FIGS. 7A-7B. FIG. 7A. Im-PHFA, primary immortal human fetal astrocyte cells were infected with an MDA-9/Syntenin expression plasmid carrying adenovirus. 48 hrs post-infection both the control and MDA-9/Syntenin overexpressing cells were treated with DMSO or PDZ1i followed by seeding in a trans-well Matrigel invasion assay and stained after 24 hrs. FIG. 7B. T98G and U87 were treated with DMSO or PDZ1i and seeding in a trans-well Matrigel invasion assay and stained after 24 hrs. Invasion was quantified from 4 random fields. Data represents fold changes and average±S.D.
FIGS. 8A-8D. PDZ1i produces similar effects to mda-9/syntenin knockdown post-radiation. FIG. 8A. ImPHFA and U87 cells were treated with 50 μM PDZ1i 2 h prior to radiation and analyzed for colony formation after 14 d. […] U87 cells were treated with 50 μM PDZ1i 2 h prior to radiation and analyzed via MTT assay after 24 h. […] Invasion was quantified from 5 random fields in FIG. 8D. […]
Invasion was measured using 24-well BioCoat cell culture inserts (BD Biosciences, Bedford, Mass.) with an 8-μm-porosity polyethylene terephthalate membrane coated with Matrigel Basement Membrane Matrix (100 μg/cm^2). […] Cells remaining on the upper surface of the filters were removed by wiping with a cotton swab, and invasion was determined by counting the cells that migrated to the lower side of the filter using at least 5 fields per insert at 100× magnification. […]

How did the “binding to X11/mint PDZ domain” value [1] turn out when `Cc1cc(NC(=O)c2nc3[nH]c4c(c(=O)n3n2)CCC4)c(C)cc1NC(=O)CCc1nnc(-c2ccccc2)o1` [113B7, N-(2,5-dimethyl-4-(3-(5-phenyl-1,3,4-oxadiazol-2-yl)propanamido)phenyl)-8-oxo-5,6,7,8-tetrahydro-4H-cyclopenta[d][1,2,4]triazolo[1,5-a]pyrimidine-2-carboxamide] was run?
The value was “No appreciable binding is detected”.

What about the radiation-induced invasion gains (U87 cells; 50 μM PDZ1i 2 h prior to 2 and 5 Gy) of the same compound?
Its radiation-induced invasion gains is “abolished these invasion gains”.

And the invasion (U87 cells; PDZ1i versus DMSO)?
The invasion was “effectively inhibited invasion”.
